Assay: Solubility of ionic liquid in 100 g of ink or treating solution
Assay type: physicochemical
Details: about 23° C., left 1 day
Experimental: Solubility (the amount of the ionic liquid that can be solved in 100 g of the ink) is defined by mixing the ink and the ionic liquid in predetermined amounts and leaving the resultant mixture for 1 day while keeping it at a temperature of about 23° C. The amount of ionic liquid that has separated from the ink 1 day after mixing is determined as the amount of ionic liquid exceeding the solubility of the ionic liquid in the ink.

Compound	Solubility (g) of ionic liquid in 100 g of ink (ink A)	Solubility (g) ionic liquid in 100 g of treating solution (treating solution A)	Solubility (g) of ionic liquid in 100 g of ink (ink B)
CC[N+](C)(CC)CCOC.O=S(=O)([N-]S(=O)(=O)C(F)(F)F)C(F)(F)F [Example 1-2, N-diethyl-3-methyl-N-(2-methoxyethyl)ammonium bis(trifluoromethanesulfonyl)imide]	0.1 g or less	0.1 g or less	–
CC[N+](C)(CC)CCOC.F[B-](F)(F)F [Example 1-4, N-diethyl-3-methyl-N-(2-methoxyethyl)tetrafluoroborate]	–	–	less than 5 g
